The values below come from PMC11013143, “4-Chloroisocoumarins as Chlamydial Protease Inhibitors and Anti-Chlamydial Agents” (Molecules, 2024).

For orientation: IC50 means the concentration needed to halve the response being measured. By viability is commonly meant the share of living cells, or the viability signal relative to a control.

SMILES strings stand for the structures. Read-outs that look alike come from different tables or passages of the source.

Series [1] deals with T1, Human Leukocyte Elastase (HLE) (Homo sapiens, UniProt P08246).
T1 construct: purchased Athens Research and Technology 16-15-051200
T1 sequence (P08246 30-247 limits assumed): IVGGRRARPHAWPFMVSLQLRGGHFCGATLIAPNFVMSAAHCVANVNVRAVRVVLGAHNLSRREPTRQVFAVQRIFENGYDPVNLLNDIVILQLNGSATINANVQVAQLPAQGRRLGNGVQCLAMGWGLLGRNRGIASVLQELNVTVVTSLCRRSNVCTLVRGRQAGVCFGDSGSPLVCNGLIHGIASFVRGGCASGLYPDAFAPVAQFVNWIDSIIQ
Nature of the series: HLE protease inhibition assay. The note with it: for Relative Potency against HLE: [IC50 of JO146]/[IC50 test compound]. The series is classed as biochemical. The method, then: Elastase was purchased from Athens Research and Technology (Cat No. 16-15-051200). Elastase (100 µg) was dissolved in Tris buffer (100 mM Tris, 20 mM CaCl2, pH 8.1, 3.14 mL), giving a concentration of 1.117 µM, and 25 µL was added to each well containing the respective inhibitor. The plate was incubated at 37 °C for 15 min.
N-Suc-AAA-pNA (Sigma Aldrich, Bayswater, Australia, S4760, 100 µL, 1 mg/mL, […]) was added to each well, and the absorbance was monitored every six minutes at 405 nm. The rate of change of absorbance was used as a comparison to controls to determine the % inhibition of protein in Microsoft Excel^TM (v2402), and these values were exported to GraphPad Prism (v8.0.1) for IC50 calculation.

The target in series [2] is T2, CtHtrA (Chlamydia trachomatis serovar D, UniProt P18584).
T2 construct: made in house; host or cells: E. coli BL21(DE3), pET22b
The series is described as follows: CtHtrA protease inhibition assay. The series is classed as biochemical. The note with it: for Relative Selectivity: (relative CtHtrA potency)/(relative HLE potency); for IC50: IC50 against CtHtrA; for IC50 / Relative Potency against CtHtrA: control JO146; for Relative Potency against CtHtrA: [IC50 of control]/[IC50 test compound]. The protocol: The inhibitory activity of compounds 2a–g against CtHtrA was evaluated. […] As these compounds are reportedly covalent inhibitors of serine proteases, a true IC50 is unable to be calculated. Instead, the residual activity of the protease is monitored over time in response to a range of compound concentrations, and an IC50 value is interpolated from a dose–response curve (see Figures S2–S4 and Tables S1 and S2). This IC50 value is then compared to a positive control (JO146 was used for 2a–g, and 2g was used for 6a–h), giving the ‘relative potency’. This is the established method for assessing CtHtrA inhibitory potency. […] This effect may be due to depth restrictions within the S1 subpocket, as kinetic studies on the rates of protease inhibition in HLE were reduced by larger C-3 alkoxy substituents. Chain branching (iso-propyl and sec-butyl substituents) increased the activity, resulting in a 1.4-fold increase for 2e over 2b and a 2.8-fold improvement for 2g over 2c.
CtHtrA was expressed using an procedure adapted from the literature. Recombinant E. coli BL21(DE3) pET22b was grown in LB media containing 100 ug/mL ampicillin to an OD600 of 0.5-0.6 in 5 × 400 mL batches at 37 °C. Isopropyl β-D-1-thioglactopyranoside (1 M, 400 µL, 1 mM final concentration) was added to each flask and incubated at 30 °C with shaking at 150 rpm for an additional 2.5 h. The culture was centrifuged at 4000× g for 15 min at 4 °C, and the cell pellet was harvested and resuspended in lysis buffer (50 mM phosphate, 10 mM imidazole, 500 mM NaCl, 0.1% Triton X-100, 10% glycerol). Lysozyme was added to the suspended cells and was sonicated in 15 cycles of 15 s, with one minute between cycles while maintaining 4 °C, and then centrifuged at 8000× g for 20 min to remove any debris, retaining the supernatant for protein purification.
TALON® metal affinity resin (Takara cat no. 635652, 5 mL) was added to each lysate tube and washed sequentially with lysis buffer (2 × 45 mL) and stringency buffer (4 × 45 mL) and then eluted with elution buffer (2 × 5 mL), allowing incubations at 4 °C for 20 min per wash, and centrifuging at 2500× g and 4 °C between washes to pellet the resin. The eluates were dialyzed in Tris buffer (pH 7.0, 50 mM, 4 L) with magnesium chloride (20 mM) at 4 °C five times over 24 h, with a minimum of three hours per dialysis change. Protein expression and isolation were confirmed with SDS-PAGE Coomassie stained gel, which was examined for the band at the correct size, and a BCA assay to confirm purified protein concentration prior to use.
CtHtrA was added to 25 wells in a black 96-well plate (40–80 µL, 10 µL increments), to which Tris-HCl buffer (50 mM, pH 7.0 with 20 mM MgCl2) was added to bring the total volume to 90 µL for 10 wells and 85 µL for the remaining 15. JO146 (10 µM, 5 µL) was added to 5 wells and JO146 (1 µM, 5 µL) was added to another 5 wells, with DMSO (5 µL) being added to the remaining 5 as a control. The plate was incubated at 37 °C for 10 min before substrate (MCA-ENLHLPLPIIFK-DNP, 10 µL, 1 mg/mL, 50% isopropanol in buffer) was added and analyzed in a TECAN Infinite Pro M200 plate reader with an excitation wavelength of 340 nm and fluorescence measured at 405 nm with four reads per well at 60 s intervals. A minimum volume of CtHtrA granting a fluorescence change of 300 min^−1 was used for subsequent assay.
The determined appropriate volume of CtHtrA in buffer was added to a 96-well non-transparent black plate and diluted to 85 µL with buffer solution. Drug or control (5 µL) at a maximum of 20% DMSO/80% buffer was added to the appropriate well with DMSO controls, and the plate was incubated for 10 min to allow activation by the protein. MCA-ENLHLPLPIIFK-DNP (Mimotopes, Australia, 1 mg/mL, 10 µL) was added and immediately monitored on a TECAN M200 Infinite plate reader at 37 °C every 60 s for 30 min, using the same wavelengths as for the activity evaluation. […]

The subject of series [3] is HEp-2 cells. The series is described as follows: MTS cell viability assay, HEp-2 cells. The series is classed as cell-based, human. The note with it: 62.5 and 31.25 µM, 24 h. The protocol:
(§1) The cytotoxic effects of the 4-chloroisocoumarin compounds 2a–g and 6a–h (24 h) were tested against HEp-2 and McCoy B cells using the MTS cell viability assay. HEp-2 and McCoy B cells were selected, as these are routinely used for the cultivation of chlamydial species, and low cytotoxicity against host cells is required to evaluate the anti-chlamydial properties of a test compound [27].
(§2) HEp-2 (human epithelial type 2, CCL-23, ATCC®, Virginia, USA) or McCoy B (mouse fibroblast, CRL-1696, ATCC®) cells were grown to 80–100% confluence, and cell density was determined with a haemocytometer. Cells were then diluted to 1 × 10^5 cells/mL, and 100 µL was added to each well in a 96-well plate, with 3 wells left as controls. Cells were grown for 24 h, and the media was removed and then replaced with fresh media containing 0.1% DMSO and the drug for testing in triplicate. Drugs and cells were incubated for 24 h, and then 20 µL of MTS and PMS solution was added and then incubated for a further four hours. Absorbance was measured at 490 nm on a TECAN M200 Infinite plate reader and data were processed using Microsoft Excel^TM with the following equation to determine cell viability relative to DMSO controls. Cellviability%=AbsorbanceDrug−AbsorbanceDye/AbsorbanceDMSO−AbsorbanceDye
(In general: Formazan colour is commonly taken as a measure of viable cells.)

Series [4] can be described thus: MTS cell viability assay, HEp-2 cells. The series is classed as cell-based, human. The following applies: human, HEp-2 cells, 125 µM, read-out: HEp-2 cell viability, % of DMSO-treated control cells. The method, then: as §1, §2
For series [5], the target named is T2, CtHtrA. Also on record: method as in PMID 23796320. The note with it: read-out: IC50 against CtHtrA; reversible covalent complex with CtHtrA; cited from earlier work.

T2 sequence (P18584 17-497): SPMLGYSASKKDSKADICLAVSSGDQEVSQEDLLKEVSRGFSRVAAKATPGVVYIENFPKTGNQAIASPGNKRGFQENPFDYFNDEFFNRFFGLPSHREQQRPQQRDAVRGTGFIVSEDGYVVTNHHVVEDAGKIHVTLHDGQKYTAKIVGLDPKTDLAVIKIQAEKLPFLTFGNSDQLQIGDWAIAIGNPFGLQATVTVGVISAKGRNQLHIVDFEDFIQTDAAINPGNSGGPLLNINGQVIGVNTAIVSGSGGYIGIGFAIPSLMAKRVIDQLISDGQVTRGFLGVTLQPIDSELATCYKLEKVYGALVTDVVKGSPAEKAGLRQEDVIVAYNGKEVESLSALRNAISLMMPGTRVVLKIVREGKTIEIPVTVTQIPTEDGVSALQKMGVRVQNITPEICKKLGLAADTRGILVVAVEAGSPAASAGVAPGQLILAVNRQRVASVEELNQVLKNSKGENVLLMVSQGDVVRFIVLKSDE

With `COc1oc(=O)c2ccccc2c1Cl` [Compound 2a, 3-Methoxy-4-chloroisocoumarin], in series [1] (Table S1, variable slope four parameter fit, read-out: IC50 against HLE), the IC50 came to 39.5 µM. The “Relative Potency against HLE” value in series [1] came to 0.0207. In series [2], the “Relative Selectivity” value came to 113.0 and the “Relative Potency against CtHtrA” value was 2.33. Besides, in series [2] (Table S2, Batch 1), the IC50 was found to be 30.6 µM. Further, the “effect on HEp-2 cell viability” value in series [3] is “did not produce significant effects”. The viability at 24 h, 125 µM in series [4] turned out to be 50%.

Turning to `CC(C)[C@H](NC(=O)OC(C)(C)C)C(=O)N1CCCC1C(=O)N[C@@H](C(C)C)P(=O)(Oc1ccccc1)Oc1ccccc1` (some centres unmarked) [JO146, reference compound], the IC50 in series [1] is 0.817 µM; in series [5] it was 12 µM; in series [2] (Table S2, Batch 1), 71.5 µM; in series [2] (Table S2, Batch 2) it was 60 µM. Further, the “Relative Potency against HLE” value in series [1] came to 1.00. Besides, the “Relative Selectivity” value in series [2] turned out to be 1.00. In addition, in series [2], the “Relative Potency against CtHtrA” value turned out to be 1.00.
